Key:
ER-α in MCF-7 cells = molecular target: T1, ER-α in MCF-7 cells (Homo sapiens, UniProt P03372); assay: Breast cancer cell ER-α in cell western assay (SP1); format: cell-based; set-up: endogenous in cells; host or cells: MCF-7; conditions: 4 or 24 hr post compound addition; for Emax: MCF7, SP1 antibody, read-out: ER-α In Cell Western Assay (SP1) Max Response; for DC50: SP1 antibody, read-out: ER-α In Cell Western Assay (SP1) IC50
T1 sequence (P03372 1-595): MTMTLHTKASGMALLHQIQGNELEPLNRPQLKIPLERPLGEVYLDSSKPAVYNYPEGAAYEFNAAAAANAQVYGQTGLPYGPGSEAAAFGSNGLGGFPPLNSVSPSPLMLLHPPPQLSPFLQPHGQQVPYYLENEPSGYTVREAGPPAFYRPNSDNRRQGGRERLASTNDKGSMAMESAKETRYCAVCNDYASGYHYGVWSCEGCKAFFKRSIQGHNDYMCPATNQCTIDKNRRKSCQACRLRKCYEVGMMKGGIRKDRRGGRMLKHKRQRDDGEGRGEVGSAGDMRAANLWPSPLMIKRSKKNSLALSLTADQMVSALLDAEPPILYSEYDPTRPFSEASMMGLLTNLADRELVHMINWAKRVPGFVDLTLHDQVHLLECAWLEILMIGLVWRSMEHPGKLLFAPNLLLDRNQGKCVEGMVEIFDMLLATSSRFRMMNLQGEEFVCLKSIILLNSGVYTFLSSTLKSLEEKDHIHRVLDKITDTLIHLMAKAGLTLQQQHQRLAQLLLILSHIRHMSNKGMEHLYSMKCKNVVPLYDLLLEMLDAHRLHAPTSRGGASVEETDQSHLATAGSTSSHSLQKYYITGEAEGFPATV
How it was run: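 Percent remaining ER: SP1 immunofluorescence normalized to DRAQ5 nuclear stain, compared with untreated controls. Treatment lasted 4 or 24 hr across 0.3–0.000003 μM final in MCF-7.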

MCF-7 cells = assay: Breast cancer cell viability assay (CellTiter-Glo, 5 days); format: cell-based; conditions: 5 days' compound exposure; for IC50: Homo sapiens, MCF7, 120 h
How it was run: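 Eleven-point semilog compound series, final 0.3-0.000003 μM, added to overnight-adhered MCF-7 cells (320/well; RPMI, 10% FBS, 20 mM HEPES) for 5 days. Viability read by CellTiter-Glo luminescence, background from medium without cells subtracted, expressed relative to untreated cells.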

Emax (ER-α in MCF-7 cells) [%] | DC50 (ER-α in MCF-7 cells) [nM] | IC50 (MCF-7 cells) [nM] | SMILES | MCF7 Viability Assay Max Response (MCF-7 cells)
≥ 40 | ≤ 100 | ≤ 100 | CC/C(=C(/c1ccc(/C=C/C(=O)O)cc1)c1ccc2[nH]ncc2c1)c1ccsc1C [Compound 214, (E)-3-(4-((E)-1-(1H-Indazol-5-yl)-2-(2-methylthiophen-3-yl)but-1-en-1-yl)phenyl)acrylic acid] | ++ (++ = a single % value ≧ 40%)
≥ 40 | – | > 100 | CC/C(=C(/c1ccc(/C=C/C(=O)O)cc1)c1ccc2[nH]ncc2c1)c1cccnc1C [Compound 217, (E)-3-(4-((E)-1-(1H-Indazol-5-yl)-2-(2-methylpyridin-3-yl)but-1-en-1-yl)phenyl)acrylic acid] | ++ (++ = a single % value ≧ 40%)
≥ 40 | – | > 100 | CC/C(=C(/c1ccc(/C=C/C(=O)O)cc1)c1ccc2[nH]ncc2c1)c1cnccc1C [Compound 218, (E)-3-(4-((E)-1-(1H-Indazol-5-yl)-2-(4-methylpyridin-3-yl)but-1-en-1-yl)phenyl)acrylic acid] | ++ (++ = a single % value ≧ 40%)
≥ 40 | > 100 | > 100 | CC/C(=C(/c1ccc(/C=C/C(=O)O)cc1)c1ccc2[nH]ncc2c1)c1cnccn1 [Compound 219, (E)-3-(4-((E)-1-(1H-Indazol-5-yl)-2-(pyrazin-2-yl)but-1-en-1-yl)phenyl)acrylic acid] | ++ (++ = a single % value ≧ 40%)
< 40 | > 100 | > 100 | CC/C(=C(/c1ccc(/C=C/C(=O)O)cc1)c1ccc2[nH]ncc2c1)c1cncnc1 [Compound 220, (E)-3-(4-((E)-1-(1H-Indazol-5-yl)-2-(pyrimidin-5-yl)but-1-en-1-yl)phenyl)acrylic acid] | + (+ = a single % value < 40%)
< 40 | > 100 | > 100 | CC/C(=C(/c1ccc(/C=C/C(=O)O)cc1)c1ccc2[nH]ncc2c1)c1cnnn1C [Compound 221, (E)-3-(4-((E)-1-(1H-Indazol-5-yl)-2-(1-methyl-1H-1,2,3-triazol-5-yl)but-1-en-1-yl)phenyl)acrylic acid] | + (+ = a single % value < 40%)
≥ 40 | ≤ 100 | ≤ 100 | CC/C(=C(/c1ccc(/C=C/C(=O)O)cc1)c1ccc2[nH]ncc2c1)c1cccnc1C(F)(F)F [Compound 222, (E)-3-(4-((E)-1-(1H-Indazol-5-yl)-2-(2-(trifluoromethyl)pyridin-3-yl)but-1-en-1-yl)phenyl)acrylic acid] | ++ (++ = a single % value ≧ 40%)
≥ 40 | – | ≤ 100 | CC/C(=C(/c1ccc(/C=C/C(=O)O)cc1)c1ccc2[nH]ncc2c1)c1cscc1C [Compound 223, (E)-3-(4-((E)-1-(1H-Indazol-5-yl)-2-(4-methylthiophen-3-yl)but-1-en-1-yl)phenyl)acrylic acid] | ++ (++ = a single % value ≧ 40%)
≥ 40 | ≤ 100 | ≤ 100 | CC/C(=C(/c1ccc(/C=C/C(=O)O)cc1)c1ccc2[nH]ncc2c1F)c1ccncc1Cl [Compound 224, (E)-3-(4-((E)-2-(3-Chloropyridin-4-yl)-1-(4-fluoro-1H-indazol-5-yl)but-1-en-1-yl)phenyl)acrylic acid] | ++ (++ = a single % value ≧ 40%)
≥ 40 | > 100 | > 100 | CC/C(=C(/c1ccc(/C=C/C(=O)O)cc1)c1ccc2[nH]ncc2c1)c1cnsc1 [Compound 225, (E)-3-(4-((E)-1-(1H-Indazol-5-yl)-2-(isothiazol-4-yl)but-1-en-1-yl)phenyl)acrylic acid] | ++ (++ = a single % value ≧ 40%)
≥ 40 | – | ≤ 100 | CC/C(=C(/c1ccc(/C=C/C(=O)O)cc1)c1ccc2[nH]ncc2c1)c1ccncc1C [Compound 226, (E)-3-(4-((E)-1-(1H-Indazol-5-yl)-2-(3-methylpyridin-4-yl)but-1-en-1-yl)phenyl)acrylic acid] | ++ (++ = a single % value ≧ 40%)
≥ 40 | ≤ 100 | ≤ 100 | CC/C(=C(/c1ccc(/C=C/C(=O)O)cc1)c1ccc2[nH]ncc2c1)c1ccc(C)s1 [Compound 227, (E)-3-(4-((E)-1-(1H-Indazol-5-yl)-2-(5-methylthiophen-2-yl)but-1-en-1-yl)phenyl)acrylic acid] | ++ (++ = a single % value ≧ 40%)
≥ 40 | > 100 | > 100 | CC/C(=C(/c1ccc(/C=C/C(=O)O)cc1)c1ccc2[nH]ncc2c1)c1cnc(C)s1 [Compound 229, (E)-3-(4-((E)-1-(1H-Indazol-5-yl)-2-(2-methylthiazol-5-yl)but-1-en-1-yl)phenyl)acrylic acid] | ++ (++ = a single % value ≧ 40%)
≥ 40 | ≤ 100 | ≤ 100 | O=C(O)/C=C/c1ccc(/C(=C(/CCF)c2ccncc2Cl)c2ccc3[nH]ncc3c2)cc1 [Compound 230, (E)-3-(4-((E)-2-(3-Chloropyridin-4-yl)-4-fluoro-1-(1H-indazol-5-yl)but-1-en-1-yl)phenyl)acrylic acid] | ++ (++ = a single % value ≧ 40%)
≥ 40 | ≤ 100 | ≤ 100 | CC/C(=C(/c1ccc(/C=C/C(=O)O)cc1)c1ccc2[nH]ncc2c1)c1ccncc1F [Compound 231, (E)-3-(4-((E)-2-(3-Fluoropyridin-4-yl)-1-(1H-indazol-5-yl)but-1-en-1-yl)phenyl)acrylic acid] | ++ (++ = a single % value ≧ 40%)
≥ 40 | ≤ 100 | ≤ 100 | CC/C(=C(/c1ccc(/C=C/C(=O)O)cc1)c1ccc2nccn2c1)c1ccc(Cl)cc1Cl [Compound 232, (E)-3-(4-((E)-2-(2,4-Dichlorophenyl)-1-(imidazo[1,2-a]pyridin-6-yl)but-1-en-1-yl)phenyl)acrylic acid] | ++ (++ = a single % value ≧ 40%)
≥ 40 | ≤ 100 | ≤ 100 | CC/C(=C(/c1ccc(/C=C/C(=O)O)cc1)c1ccc2nccn2c1)c1ccc(F)cc1C(F)(F)F [Compound 233, (E)-3-(4-((E)-2-(4-Fluoro-2-(trifluoromethyl)phenyl)-1-(imidazo[1,2-a]pyridin-6-yl)but-1-en-1-yl)phenyl)acrylic acid] | ++ (++ = a single % value ≧ 40%)
≥ 40 | ≤ 100 | ≤ 100 | CC/C(=C(/c1ccc(/C=C/C(=O)O)cc1)c1ccc2[nH]ncc2c1)c1ccnc(OC)c1 [Compound 236, (E)-3-(4-((E)-1-(1H-Indazol-5-yl)-2-(2-methoxypyridin-4-yl)but-1-en-1-yl)phenyl)acrylic acid] | ++ (++ = a single % value ≧ 40%)
≥ 40 | ≤ 100 | ≤ 100 | CC/C(=C(/c1ccc(/C=C/C(=O)O)cc1)c1ccc2[nH]ncc2c1)c1ccc2c(c1)OCO2 [Compound 240, (E)-3-(4-((E)-2-(Benzo[d][1,3]dioxol-5-yl)-1-(1H-indazol-5-yl)but-1-en-1-yl)phenyl)acrylic acid] | ++ (++ = a single % value ≧ 40%)
≥ 40 | ≤ 100 | ≤ 100 | CC/C(=C(/c1ccc(/C=C/C(=O)O)cc1)c1ccc2[nH]ncc2c1)c1sccc1C [Compound 241, (E)-3-(4-((E)-1-(1H-Indazol-5-yl)-2-(3-methylthiophen-2-yl)but-1-en-1-yl)phenyl)acrylic acid] | ++ (++ = a single % value ≧ 40%)
≥ 40 | ≤ 100 | ≤ 100 | CC/C(=C(/c1ccc(/C=C/C(=O)O)cc1)c1ccc2[nH]ncc2c1F)c1cscc1C [Compound 242, (E)-3-(4-((E)-1-(4-Fluoro-1H-indazol-5-yl)-2-(4-methylthiophen-3-yl)but-1-en-1-yl)phenyl)acrylic acid] | ++ (++ = a single % value ≧ 40%)
≥ 40 | ≤ 100 | ≤ 100 | CC/C(=C(/c1ccc(/C=C/C(=O)O)cc1)c1cc(F)c2[nH]ncc2c1)c1ccncc1Cl [Compound 245, (E)-3-(4-((E)-2-(3-chloropyridin-4-yl)-1-(7-fluoro-1H-indazol-5-yl)but-1-en-1-yl)phenyl)acrylic acid] | ++ (++ = a single % value ≧ 40%)
